Experimental findings from patent publication US20090118135A1, “METHODS AND COMPOUNDS FOR REGULATING APOPTOSIS” (The Burnham Institute, priority 2007, published 2009) are described below.

In the test the target is T1, GST-Bfl-1 (Homo sapiens, UniProt Q16548).
T1 construct: lacking their C-terminal transmembrane domains (about the last 20 amino acids) (“ΔTM”); made in house; host or cells: XL-1 Blue E. coli, pGEX 4T-1
T1 sequence (Q16548 1-155 limits assumed): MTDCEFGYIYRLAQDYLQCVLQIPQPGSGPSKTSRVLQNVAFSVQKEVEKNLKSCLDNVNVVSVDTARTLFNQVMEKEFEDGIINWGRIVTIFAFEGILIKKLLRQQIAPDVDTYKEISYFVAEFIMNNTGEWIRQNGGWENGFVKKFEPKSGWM
In words: Bfl-1/FITC-Bid BH3 competitive fluorescence polarization assay. The test is classed as binding. Particulars: primary HTS hits, MLSCN library (PubChem SIDs), Table 5B. For orientation: Polarisation of emitted light reports the rotation of a fluorescent probe.

Turning to `Brc1ccc2ncnc(Nc3ccc(N4CCOCC4)cc3)c2c1` [Compound 7975247], the “% Activity” value was 86.8% and the FRatio was 0.87.
As to `Cc1ccccc1C1C(=O)c2sc3nc4c(c(=O)n3c2C1=O)CCC4` (stereo not shown) [Compound 7977096], the “% Activity” value is on record as 50.8% and the FRatio is on record as 0.88.
For the compound `CCSc1nnc(NC(=O)c2cnccn2)s1` [Compound 7977261], the “% Activity” value amounted to 58.3% and the FRatio stood at 1.19.
For the compound `O=c1oc2c3c4c(cc2s1)CCCN4CCC3` [Compound 7978324], the “% Activity” value came out at 66.9% and the FRatio came out at 1.02.
As to `CC1=C(N2C(=O)c3ccc4c5c(ccc(c35)C2=O)CC4)C(C)N(c2ccccc2)N1C` (stereo not shown) [Compound 7978392], the “% Activity” value is 111.5% and the FRatio is recorded as 0.39.
As to `Cc1ccc2nc(O)c(C3C(C#N)=C(N)Oc4c3ccc3cccnc43)cc2c1` (stereo not shown) [Compound 14720783], the “% Activity” value is given as 55% and the FRatio was found to be 0.84.
For the compound `Cc1cccc2cc(C(c3nnnn3C(C)(C)C)N(Cc3ccco3)CC3CCCO3)c(O)nc12` (stereo not shown) [Compound 14720806], the “% Activity” value was 64.5% and the FRatio was found to be 0.95.
Regarding `Cc1cc2cc(CN(Cc3ccco3)S(=O)(=O)c3c(C)ccc4nsnc34)c(O)nc2cc1C` [Compound 14720830], the “% Activity” value stood at 56% and the FRatio turned out to be 1.29.
On to `O=C(Nc1ccccc1C(=O)O)c1ccccc1` [Compound 14723278], for which the “% Activity” value stood at 85.4% and the FRatio came to 0.87.
Taken in the same sequence, the figures for `Cn1c(=O)n(C)c2cc(S(=O)(=O)Nc3ccccc3O)ccc21` [Compound 14723355] were 52.9% and 0.98.
Take `c1cc2c3c(cccc3c1)NC1(CCCCC1)N2` [Compound 14724643]: the “% Activity” value stood at 52.7% and the FRatio amounted to 0.82.
As for `c1nnnn1C12CC3CC(CC(C3)C1)C2` [Compound 14725293], the “% Activity” value was determined as 60.7% and the FRatio is listed as 0.98.
For the compound `Nc1ccc(N2CCN(C(=O)c3cccs3)CC2)cc1` [Compound 14726238], the “% Activity” value came out at 57.8% and the FRatio amounted to 0.87.
Taken in the same sequence, the figures for `Cc1ccc(-c2nnc(S)n2/N=C/C=C/c2ccccc2[N+](=O)[O-])cc1` [Compound 14729394] were 55.5% and 0.81.
In the case of `Cc1ccc(C)n1-c1sccc1C(=O)O` [Compound 14729511], the “% Activity” value came out at 80% and the FRatio amounted to 0.77.
In the same order, the values of `COc1ccc2c(c1)c(=O)oc1cc(OCC(=O)NC3CCCCC3)ccc12` [Compound 14730237] are 78.9% and 0.91.
Take `COc1ccc2c(c1)c(=O)oc1cc(OCC(=O)N3CCc4ccccc4C3)ccc12` [Compound 14730322]: the “% Activity” value was 59.7% and the FRatio came to 0.75.
As to `O=C(Nc1ccc(N2CCCC2)cc1)C(c1ccccc1)c1ccccc1` [Compound 14730995], the “% Activity” value is 64.1% and the FRatio turned out to be 0.9.
For the compound `Cc1ccc(-n2nc3ccc(NC(=O)c4ccc5c(c4)OCO5)cc3n2)cc1` [Compound 14732083], the “% Activity” value worked out at 69.5% and the FRatio was found to be 0.83.
Regarding `Cc1ccc(C(=O)ONc2ccc(/N=N/C(=O)c3ccccc3O)cc2)cc1` [Compound 14732345], the “% Activity” value amounted to 108.7% and the FRatio was found to be 0.83.
As for `O=C(Cc1cnn(-c2ccccc2)c1)c1ccc(O)c(O)c1O` [Compound 14732615], the “% Activity” value is 57.8% and the FRatio is reported as 0.74.
For the compound `CCc1ccc(NC(=O)c2noc3c2CCC3)cc1` [Compound 14733222], the “% Activity” value is recorded as 68.1% and the FRatio stood at 0.73.
For the compound `Cc1ccc(S(=O)(=O)Cc2ccc(C(=O)N3CCc4ccccc4C3)o2)cc1` [Compound 14733336], the “% Activity” value stood at 60.8% and the FRatio is 0.93.
